According to patent US20140051756A1, “METHOD FOR PREVENTING OR TREATING ARRHYTHMIA, METHOD FOR PREVENTING OR TREATING ATRIAL FIBRILLATION, MODEL OF SUSTAINED ATRIAL FIBRILLATION, METHOD FOR PRODUCING THE MODEL, AND METHOD FOR SCREENING FOR ATRIAL FIBRILLATION INHIBITOR” (Toho University, priority 2011, published 2014):
Where two headings read alike, the source gives them in different places.

Columns and labels:
[1] = test system: model of sustained atrial fibrillation; assay: Test Example 1: screening for atrial fibrillation inhibitor, intravenous injection, Holter electrocardiogram; conditions: for Frequency of Atrial Fibrillation Termination: X/Y individuals terminated
normal beagle dogs [2] = conditions: dog, in vivo, iv
[3] = test system: model of sustained atrial fibrillation; assay: Test Example 2: study of dose and combined use of oseltamivir, with 24 hour follow-up for recurrence; format: in vivo, beagle dog; conditions: for Frequency of Atrial Fibrillation Recurrence: 24 hours follow-up after termination
From the text: Oseltamivir (oseltamivir phosphate, trade name: TAMIFLU (registered trademark), product of CHUGAI PHARMACEUTICAL CO., LTD.; phosphate of the compound represented by Structural Formula (I))) and/or pilsicainide (pilsicainide hydrochloride, trade name: […] (registered trademark), product of DAIICHI SANKYO COMPANY, LIMITED), which had been diluted with saline to doses as described in Table 2-1, was intravenously injected to the model of sustained atrial fibrillation produced in Production Example 1 in doses described in Table 2-1 for 10 min.
During from before the administration to after the administration, the electrocardiogram was monitored in the same manner as in Test Example 1, and the frequency of atrial fibrillation termination and the defibrillation rate were determined in the same manner as in Test Example 1. For individuals in which atrial fibrillation was terminated, an electrocardiographic follow-up was performed for 24 hours after atrial fibrillation was terminated to thereby determine whether atrial fibrillation recurred.

normal beagle dogs [4] = assay: Test Example 3: study of effect on QT prolongation (ECG, MAP90, ERP)
[5] = 3 mg/kg intravenous over 10 min
[6] = high dose 30 mg/kg intravenous over 10 min
[7] = low dose 3 mg/kg intravenous over 10 min
[8] = 30 mg/kg intravenous over 10 min

With CCN(CC)CCCN(c1ccccc1)C1Cc2ccccc2C1 [Aprindine, aprindine] the “Defibrillation Rate” value [1, 5] was 0% and the “Frequency of Atrial Fibrillation Termination” value [1, 5] was 0/6.

For c1ccc(C2(c3ccccc3)CC2C2=NCCN2)cc1 (centres unmarked) [Cibenzoline, cibenzoline], the “Defibrillation Rate” value [1, 5] was 33.3% and the “Frequency of Atrial Fibrillation Termination” value [1, 5] was 2/6.

For CC(C)N(CCC(C(N)=O)(c1ccccc1)c1ccccn1)C(C)C (centres unmarked) [Disopyramide, disopyramide], the “MAP90 (CL300) versus MAP90 (CL400), MAP prolongation pattern” value (shortened to “MAP90 (CL300) versus MAP90 (CL400)”) (normal beagle dogs [2]) was “dangerous MAP prolongation pattern”, the “prolongation of QT and QTc, QT prolongation pattern” value (“prolongation of QT and QTc” below) (normal beagle dogs [2]) was “longer prolongations of QT and QTc than that of the oseltamivir-administered group, and a dangerous QT prolongation pattern” and the “Frequency of Atrial Fibrillation Termination” value [1, 5] was 1/6. The “death of the model animal after administration” value ([1]; 3 mg/kg intravenous, 1 individual, FIG. 6A) was “confirmed to be dead” and the “termination of atrial fibrillation on electrocardiogram” value ([1]; 3 mg/kg intravenous, 1 individual, FIGS. 6A to 6C) was “could not terminate atrial fibrillation”.

With CCOC(=O)C1=C[C@@H](OC(CC)CC)[C@H](NC(C)=O)[C@@H](N)C1 [Oseltamivir, oseltamivir] the “Defibrillation Rate” value [3, 6] was 100%, the “Frequency of Atrial Fibrillation Termination” value [3, 6] was 5/5 and the “Frequency of Atrial Fibrillation Recurrence” value [3, 6] was 2/5. The “Defibrillation Rate” value [3, 7] was 25%, the “Frequency of Atrial Fibrillation Termination” value [3, 7] was 1/4 and the “Frequency of Atrial Fibrillation Recurrence” value [3, 7] was 0/1. For the same compound, the “prolongation of QT and QTc” value (normal beagle dogs [4]; anesthetized normal dogs, intravenous doses increased stepwise every 30 min (Table 3), FIGS. 7 to 10) was “short prolongations of QT and QTc and a safe QT prolongation pattern”, the “prolongation of P wave width on the electrocardiogram (index of inhibitory effect on Na channels in the atrial muscle)” value (normal beagle dogs [4]; sinus rhythm, 0.3, 3, 30 mg/kg intravenous stepwise, FIG. 7) was “longer prolongation of P wave” and the “MAP90 (CL300) versus MAP90 (CL400)” value (normal beagle dogs [4]; ventricular pacing at cycle length 300 msec (200 bpm) and 400 msec (150 bpm), stepwise intravenous doses (Table 3)) was “safe MAP prolongation pattern”. For the same compound, the “Defibrillation Rate” value [1, 8] was 91.7%, the “adverse effect on the ventricle” value [1, 8] was “does not adversely affect the ventricle” and the “Frequency of Atrial Fibrillation Termination” value [1, 8] was 11/12. For the same compound, the “Defibrillation Rate” value ([1]; 30 mg/kg intravenous over 10 min, listed as oseltamivir) was “very high”.

With Cc1cccc(C)c1NC(=O)CC12CCCN1CCC2 [Pilsicainide, pilsicainide] the “MAP90 (CL300) versus MAP90 (CL400)” value (normal beagle dogs [2]) was “dangerous MAP prolongation pattern”, the “prolongation of QT and QTc” value (normal beagle dogs [2]) was “longer prolongations of QT and QTc than that of the oseltamivir-administered group, and a dangerous QT prolongation pattern” and the “Defibrillation Rate” value [1, 5] was 33.3%. For the same compound, the “Frequency of Atrial Fibrillation Termination” value [1, 5] was 2/6.
